# Experimental data as given in ChEMBL document CHEMBL3885861, “Open TG-GATES”.
# Species on record: Rattus norvegicus
# Test: Open TG-GATES - Regimen: Single
# Type: toxicity, organism-based, Sprague-Dawley
# Set-up: regimen Single, gender Male, age 6 weeks
# Conditions: in vivo, po, route gavage; for Bas / Eos / Fbg / Hb / Ht / Lym / MCHC / MCV / Mono / Neu / PT / Plat / RBC / WBC / MCH / APTT: tissue Blood; for KIDNEY_L / KIDNEY_R / KIDNEY_TOTAL: tissue Kidney; for LIVER: tissue Liver; for ALT / AST / BUN / CRE / Cl / DBIL / GLC / IP / LDH / Na / RALB / TBIL / TC / TG / TP / gamma-GTP: tissue Plasma
# [1] = 20 mg/kg, 3 h, dose level Middle
structure (smiles),measurement,setting,value
CC/C(=C(\c1ccccc1)c1ccc(OCCN(C)C)cc1)c1ccccc1 [TAMOXIFEN],Bas,"6 mg/kg, 3 h, dose level Low",0%
same,Eos,"6 mg/kg, 3 h, dose level Low",1%
same,Fbg,"6 mg/kg, 3 h, dose level Low",247 mg/dL
same,Hb,"6 mg/kg, 3 h, dose level Low",13.1 g/dL
same,Ht,"6 mg/kg, 3 h, dose level Low",39.6%
same,Lym,"6 mg/kg, 3 h, dose level Low",78.4%
same,MCHC,"6 mg/kg, 3 h, dose level Low",33.1%
same,MCV,"6 mg/kg, 3 h, dose level Low",64.6 fL
same,Mono,"6 mg/kg, 3 h, dose level Low",3.4%
same,Neu,"6 mg/kg, 3 h, dose level Low",16.6%
same,PT,"6 mg/kg, 3 h, dose level Low",12 s
same,Plat,"6 mg/kg, 3 h, dose level Low",122.7 x10_4/uL
same,RBC,"6 mg/kg, 3 h, dose level Low",612.6 x10_4/ul
same,WBC,"6 mg/kg, 3 h, dose level Low",83.4 x10_2/uL
same,KIDNEY_L,"6 mg/kg, 3 h, dose level Low",0.8 g
same,KIDNEY_R,"6 mg/kg, 3 h, dose level Low",0.9 g
same,KIDNEY_TOTAL,"6 mg/kg, 3 h, dose level Low",1.7 g
same,LIVER,"6 mg/kg, 3 h, dose level Low",8.4 g
same,ALT,"6 mg/kg, 3 h, dose level Low",50.6 IU/L
same,AST,"6 mg/kg, 3 h, dose level Low",81.2 IU/L
same,BUN,"6 mg/kg, 3 h, dose level Low",11.2 mg/dL
same,CRE,"6 mg/kg, 3 h, dose level Low",0.2 mg/dL
same,Cl,"6 mg/kg, 3 h, dose level Low",107.6 meq/L
same,DBIL,"6 mg/kg, 3 h, dose level Low",0.032 mg/dL
same,GLC,"6 mg/kg, 3 h, dose level Low",173.4 mg/dL
same,IP,"6 mg/kg, 3 h, dose level Low",8.9 mg/dL
same,LDH,"6 mg/kg, 3 h, dose level Low",58.2 IU/L
same,Na,"6 mg/kg, 3 h, dose level Low",140.4 meq/L
same,RALB,"6 mg/kg, 3 h, dose level Low",2.6 g/dL
same,TBIL,"6 mg/kg, 3 h, dose level Low",0.046 mg/dL
same,TC,"6 mg/kg, 3 h, dose level Low",80.8 mg/dL
same,TG,"6 mg/kg, 3 h, dose level Low",113.6 mg/dL
same,TP,"6 mg/kg, 3 h, dose level Low",5.6 g/dL
same,gamma-GTP,"6 mg/kg, 3 h, dose level Low",1 IU/L
same,TERMINAL_BW,"6 mg/kg, 6 h, dose level Low",195.3 g
same,Bas,"6 mg/kg, 6 h, dose level Low",0%
same,Eos,"6 mg/kg, 6 h, dose level Low",1%
same,Fbg,"6 mg/kg, 6 h, dose level Low",258.6 mg/dL
same,Hb,"6 mg/kg, 6 h, dose level Low",13.1 g/dL
same,Ht,"6 mg/kg, 6 h, dose level Low",39.6%
same,Lym,"6 mg/kg, 6 h, dose level Low",77.4%
same,MCH,"6 mg/kg, 6 h, dose level Low",21.6 pg
same,MCHC,"6 mg/kg, 6 h, dose level Low",33.2%
same,MCV,"6 mg/kg, 6 h, dose level Low",65.1 fL
same,Mono,"6 mg/kg, 6 h, dose level Low",3.2%
same,Neu,"6 mg/kg, 6 h, dose level Low",18%
same,PT,"6 mg/kg, 6 h, dose level Low",12.1 s
same,Plat,"6 mg/kg, 6 h, dose level Low",120.4 x10_4/uL
same,RBC,"6 mg/kg, 6 h, dose level Low",608.2 x10_4/ul
same,WBC,"6 mg/kg, 6 h, dose level Low",67.4 x10_2/uL
same,KIDNEY_L,"6 mg/kg, 6 h, dose level Low",0.9 g
same,KIDNEY_R,"6 mg/kg, 6 h, dose level Low",0.9 g
same,KIDNEY_TOTAL,"6 mg/kg, 6 h, dose level Low",1.7 g
same,LIVER,"6 mg/kg, 6 h, dose level Low",8.2 g
same,ALT,"6 mg/kg, 6 h, dose level Low",41 IU/L
same,AST,"6 mg/kg, 6 h, dose level Low",77 IU/L
same,BUN,"6 mg/kg, 6 h, dose level Low",8.2 mg/dL
same,CRE,"6 mg/kg, 6 h, dose level Low",0.1 mg/dL
same,Cl,"6 mg/kg, 6 h, dose level Low",108.2 meq/L
same,DBIL,"6 mg/kg, 6 h, dose level Low",0.014 mg/dL
same,GLC,"6 mg/kg, 6 h, dose level Low",180.2 mg/dL
same,IP,"6 mg/kg, 6 h, dose level Low",10.9 mg/dL
same,LDH,"6 mg/kg, 6 h, dose level Low",93.6 IU/L
same,Na,"6 mg/kg, 6 h, dose level Low",141.6 meq/L
same,RALB,"6 mg/kg, 6 h, dose level Low",2.5 g/dL
same,TBIL,"6 mg/kg, 6 h, dose level Low",0.05 mg/dL
same,TC,"6 mg/kg, 6 h, dose level Low",81.4 mg/dL
same,TG,"6 mg/kg, 6 h, dose level Low",46.6 mg/dL
same,TP,"6 mg/kg, 6 h, dose level Low",5.4 g/dL
same,gamma-GTP,"6 mg/kg, 6 h, dose level Low",1.4 IU/L
same,TERMINAL_BW,"6 mg/kg, 9 h, dose level Low",191.5 g
same,APTT,"6 mg/kg, 9 h, dose level Low",16 s
same,Bas,"6 mg/kg, 9 h, dose level Low",0%
same,Eos,"6 mg/kg, 9 h, dose level Low",1%
same,Fbg,"6 mg/kg, 9 h, dose level Low",248.8 mg/dL
same,Hb,"6 mg/kg, 9 h, dose level Low",12.8 g/dL
same,Lym,"6 mg/kg, 9 h, dose level Low",68.8%
same,MCH,"6 mg/kg, 9 h, dose level Low",21.5 pg
same,MCHC,"6 mg/kg, 9 h, dose level Low",33.5%
same,MCV,"6 mg/kg, 9 h, dose level Low",64.3 fL
same,Mono,"6 mg/kg, 9 h, dose level Low",2.6%
same,Neu,"6 mg/kg, 9 h, dose level Low",27.2%
same,PT,"6 mg/kg, 9 h, dose level Low",12.5 s
same,Plat,"6 mg/kg, 9 h, dose level Low",116.1 x10_4/uL
same,RBC,"6 mg/kg, 9 h, dose level Low",597.4 x10_4/ul
same,WBC,"6 mg/kg, 9 h, dose level Low",68.7 x10_2/uL
same,KIDNEY_L,"6 mg/kg, 9 h, dose level Low",0.8 g
same,KIDNEY_R,"6 mg/kg, 9 h, dose level Low",0.8 g
same,KIDNEY_TOTAL,"6 mg/kg, 9 h, dose level Low",1.6 g
same,LIVER,"6 mg/kg, 9 h, dose level Low",7.1 g
same,ALT,"6 mg/kg, 9 h, dose level Low",39 IU/L
same,AST,"6 mg/kg, 9 h, dose level Low",77.2 IU/L
same,BUN,"6 mg/kg, 9 h, dose level Low",9.6 mg/dL
same,CRE,"6 mg/kg, 9 h, dose level Low",0.2 mg/dL
same,Cl,"6 mg/kg, 9 h, dose level Low",108.2 meq/L
same,DBIL,"6 mg/kg, 9 h, dose level Low",0.01 mg/dL
same,GLC,"6 mg/kg, 9 h, dose level Low",186.6 mg/dL
same,IP,"6 mg/kg, 9 h, dose level Low",11 mg/dL
same,LDH,"6 mg/kg, 9 h, dose level Low",62.4 IU/L
same,Na,"6 mg/kg, 9 h, dose level Low",143.6 meq/L
same,RALB,"6 mg/kg, 9 h, dose level Low",2.5 g/dL
same,TBIL,"6 mg/kg, 9 h, dose level Low",0.046 mg/dL
same,TC,"6 mg/kg, 9 h, dose level Low",67.2 mg/dL
same,TG,"6 mg/kg, 9 h, dose level Low",33.4 mg/dL
same,TP,"6 mg/kg, 9 h, dose level Low",5.3 g/dL
same,gamma-GTP,"6 mg/kg, 9 h, dose level Low",1 IU/L
same,TERMINAL_BW,"6 mg/kg, 24 h, dose level Low",194.3 g
same,APTT,"6 mg/kg, 24 h, dose level Low",17.4 s
same,Bas,"6 mg/kg, 24 h, dose level Low",0%
same,Eos,"6 mg/kg, 24 h, dose level Low",1.2%
same,Fbg,"6 mg/kg, 24 h, dose level Low",250.2 mg/dL
same,Hb,"6 mg/kg, 24 h, dose level Low",12.8 g/dL
same,Ht,"6 mg/kg, 24 h, dose level Low",38.6%
same,Lym,"6 mg/kg, 24 h, dose level Low",79%
same,MCH,"6 mg/kg, 24 h, dose level Low",20.9 pg
same,MCHC,"6 mg/kg, 24 h, dose level Low",33.2%
same,MCV,"6 mg/kg, 24 h, dose level Low",62.9 fL
same,Mono,"6 mg/kg, 24 h, dose level Low",3.2%
same,Neu,"6 mg/kg, 24 h, dose level Low",16.4%
same,PT,"6 mg/kg, 24 h, dose level Low",12.8 s
same,Plat,"6 mg/kg, 24 h, dose level Low",113.7 x10_4/uL
same,RBC,"6 mg/kg, 24 h, dose level Low",613.8 x10_4/ul
same,WBC,"6 mg/kg, 24 h, dose level Low",80.8 x10_2/uL
same,KIDNEY_L,"6 mg/kg, 24 h, dose level Low",0.9 g
same,KIDNEY_R,"6 mg/kg, 24 h, dose level Low",0.9 g
same,KIDNEY_TOTAL,"6 mg/kg, 24 h, dose level Low",1.7 g
same,LIVER,"6 mg/kg, 24 h, dose level Low",8.7 g
same,ALT,"6 mg/kg, 24 h, dose level Low",51 IU/L
same,AST,"6 mg/kg, 24 h, dose level Low",79.8 IU/L
same,BUN,"6 mg/kg, 24 h, dose level Low",12.8 mg/dL
same,CRE,"6 mg/kg, 24 h, dose level Low",0.2 mg/dL
same,Cl,"6 mg/kg, 24 h, dose level Low",108 meq/L
same,DBIL,"6 mg/kg, 24 h, dose level Low",0.012 mg/dL
same,GLC,"6 mg/kg, 24 h, dose level Low",184.4 mg/dL
same,IP,"6 mg/kg, 24 h, dose level Low",8 mg/dL
same,LDH,"6 mg/kg, 24 h, dose level Low",55.2 IU/L
same,Na,"6 mg/kg, 24 h, dose level Low",142.4 meq/L
same,RALB,"6 mg/kg, 24 h, dose level Low",2.5 g/dL
same,TBIL,"6 mg/kg, 24 h, dose level Low",0.036 mg/dL
same,TC,"6 mg/kg, 24 h, dose level Low",61.6 mg/dL
same,TG,"6 mg/kg, 24 h, dose level Low",64.2 mg/dL
same,TP,"6 mg/kg, 24 h, dose level Low",5.4 g/dL
same,gamma-GTP,"6 mg/kg, 24 h, dose level Low",1.4 IU/L
same,TERMINAL_BW,[1],194.9 g
same,APTT,[1],16.5 s
same,Bas,[1],0.2%
